Experimental data as given in patent US12624040B2, “Compositions of substituted pyrazolopyrimidines and uses thereof” (KSQ Therapeutics, Inc., priority 2020, dated 2026).

What was measured:
[1] = Aqueous solubility / BCS classification; type: physicochemical; conditions: for BCS class: low solubility/high permeability; for Solubility in water: physiological pHs (from pH 1.5-8.0)
From the text: Studies of these compounds indicate that these compounds are BCS class II compounds (low solubility/high permeability). […] Poor bioavailability is also often accompanied by highly variable patient blood levels and unpredictable dose/therapeutic effects due to erratic absorption of the drug by the patient. Accordingly, a need exists for compositions and methods to increase the solubility of these compounds.

| SMILES | BCS class [1] | Solubility in water [1] | Bioavailability (Bioavailability) |
| --- | --- | --- | --- |
| COc1ncnc(C2CC2)c1-c1ncc2cnn(Cc3ccc(-n4nc(C(F)(F)F)cc4C)cc3)c2n1 [Formula III, 6-(4-cyclopropyl-6-methoxypyrimidin-5-yl)-1-(4-(5-methyl-3-(trifluoromethyl)-1H-pyrazol-1-yl)benzyl)-1H-pyrazolo[3,4-d] pyrimidine] | BCS class II | poorly soluble | low bioavailability |
| COc1ncnc(C2CC2)c1-c1ncc2cnn(Cc3ccc(-c4nc(C(F)(F)F)cn4C(C)C)cc3)c2n1 [Formula II, 6-(4-cyclopropyl-6-methoxypyrimidin-5-yl)-1-(4-(1-isopropyl-4-(trifluoromethyl)-1H-imidazol-2-yl)benzyl)-1H-pyrazolo[3,4-d]pyrimidine] | BCS class II | poorly soluble | low bioavailability |
